Patent US20230407243A1, “GENETIC PLATFORM TO INVESTIGATE THE FUNCTIONS OF BACTERIAL DRUG EFFLUX PUMPS” (priority 2022, published 2023)
Where “and” joins values, the source holds several entries; their conditions need not be identical. Equal values may be shown once. Read-outs that look alike come from different tables or passages of the source.

Legend:
Type in all cases: cell-based, Escherichia coli
EKO-35-Pore = test: Checkerboard synergy (FICI), porinated strain; details: EKO-35 Pore; with Ethidium Bromide
Method: (§1) Synergy measurement using checkerboard analysis was performed in 96-well microtiter plates using the microdilution broth method, according to CLSI guidelines (Patel J. B., 2015). The cell inocula were prepared using the colony resuspension method. The minimum inhibitory concentrations (MICs) were defined as the lowest concentration that provided no growth, as determined by measurement of the OD600nm using a Synergy H1 microplate reader (BioTek). Susceptibility testing was performed in MHB II with a final volume of 100 μL. PAI3N (Bachem Americas) was solubilized in MHB II. […] Solvent controls were included in each plate.
(§2) The Fractional Inhibitory Concentration Index (FICI) was used to assess the synergy of PAI3N in combination with different antibiotics. The FICI represents the ΣFIC of each drug. The FICI for each drug was calculated using the following formula: FICI=FICA+FICB=(CA/MICA)+(CB/MICB). Where MICA and MICB are the MICs of drugs A (PAI3N/NMP) and B (antibiotic) alone, and CA and CB are the MICs of the drugs in combination. The effects of PAβN or NMP in combination with antibiotics were classified as: synergistic (FICI<0.5), additive (FICI>0.5-1.0), indifferent (FICI>1.0-2.0), and antagonistic (FICI>2.0). Fold increases in resistance provided by efflux pumps were calculated by dividing the MIC values of strains expressing efflux pumps by the MIC value of EKO-35.

[1] = test system: EKO-35 porinated strain expressing acrD; test: Checkerboard synergy (FICI), porinated strain; details: EKO-35 acrD Pore; NMP alone, one value per checkerboard
Method: as §1, §2

wild-type K-12-Pore = test: Checkerboard synergy (FICI), porinated strain; details: K-12 Pore
Method: as §1, §2

[2] = test system: EKO-35-Pore strains producing other efflux pumps; test: Checkerboard synergy (FICI), porinated strain; details: EKO-35 mdtEF Pore; NMP alone, one value per checkerboard
Method: as §1, §2

[3] = test system: EKO-35-Pore expressing the P. aeruginosa pump mexCD; test: Checkerboard synergy (FICI), porinated strain; details: EKO-35 mexCD Pore; with Erythromycin
Method: as §1, §2

[4] = test system: EKO-35 porinated strain expressing acrB; test: Checkerboard synergy (FICI), porinated strain; details: EKO-35 acrB Pore
Method: as §1, §2

[5] = test system: EKO-35-Pore acrBD408A (functionally inactive AcrB variant); test: Checkerboard synergy (FICI), porinated strain; details: EKO-35 acrBD408A Pore; with Ciprofloxacin
Method: as §1, §2

[6] = test system: EKO-35 porinated strain expressing acrF (AcrEF); test: Checkerboard synergy (FICI), porinated strain; details: EKO-35 acrEF Pore; with Fusidic Acid
Method: as §1, §2

[7] = test system: EKO-35 strains producing different efflux pumps (EKO-35 araC::X); test: Checkerboard synergy (FICI) of PAβN or NMP with antibiotics
Method: as §1, §2

EKO-35 acrBD408A = details: EKO-35 acrBD408A
Method: as §1, §2

wild-type E. coli K-12 = details: K-12
Method: as §1, §2

ΔtolC = details: ΔtolC
Method: as §1, §2

EKO-35 = test system: EKO-35
Method: as §1, §2

ΔtolC-Pore = test system: ΔtolC-Pore
Method: as §1, §2

c1ccc2c(CN3CCNCC3)cccc2c1 [NMP, 1-(1-naphthylmethyl)-piperazine]
NMP MICa Combined (EKO-35-Pore): 4 µg/mL | NMP MICa Alone [1]: 256 µg/mL | NMP MICa Combined (wild-type K-12-Pore; with Linezolid): 64 µg/mL | NMP MICa Combined (wild-type K-12-Pore; with Oxacillin): 8 µg/mL | NMP MICa Alone [2]: 256 µg/mL | NMP MICa Combined [3]: 64 µg/mL | NMP MICa Combined ([4]; with Ethidium Bromide): 32 µg/mL | NMP MICa Combined ([4]; with Linezolid): 64 µg/mL | NMP MICa Combined [5]: 4 µg/mL | NMP MICa Combined [6]: 64 µg/mL | NMP MICa Combined ([7]; EKO-35 acrB, with Erythromycin): 8 µg/mL | NMP MICa Combined ([7]; EKO-35 acrB, with Linezolid): 64 µg/mL | NMP MICa Combined ([7]; EKO-35 acrEF, with Ciprofloxacin): 64 µg/mL | NMP MICa Combined ([7]; EKO-35 acrEF, with Oxacillin): 64 µg/mL | NMP MICa Combined ([7]; EKO-35 mdtEF, with Erythromycin): 64 µg/mL | NMP MICa Combined ([7]; EKO-35 mexCD, with Erythromycin): 16 µg/mL | NMP MICa Combined (EKO-35 acrBD408A; with Ciprofloxacin): 64 µg/mL | NMP MICa Combined (EKO-35 acrBD408A; with Linezolid): 8 µg/mL | NMP MICa Combined (EKO-35 acrBD408A; with Oxacillin): 1024 µg/mL | NMP MICa Combined (wild-type E. coli K-12; with Ciprofloxacin): 128 µg/mL | NMP MICa Combined (wild-type E. coli K-12; with Erythromycin): 128 µg/mL | NMP MICa Combined (wild-type E. coli K-12; with Ethidium Bromide): 64 µg/mL | NMP MICa Combined (wild-type E. coli K-12; with Fusidic Acid): 256 µg/mL | NMP MICa Combined (wild-type E. coli K-12; with Linezolid): 128 µg/mL | NMP MICa Combined (wild-type E. coli K-12; with Oxacillin): 64 µg/mL | NMP MICa Combined (ΔtolC; with Ciprofloxacin): 512 µg/mL | NMP MICa Combined (ΔtolC; with Erythromycin): 128 µg/mL | NMP MICa Combined (ΔtolC; with Ethidium Bromide): 32 µg/mL | NMP MICa Combined (ΔtolC; with Fusidic Acid): 256 µg/mL | NMP MICa Combined (ΔtolC; with Linezolid): 512 µg/mL | NMP MICa Combined (ΔtolC; with Oxacillin): 8 µg/mL | NMP MICa Alone (EKO-35; EKO-35, NMP alone, one value per checkerboard): 512 µg/mL and 1024 µg/mL | NMP MICa Combined (EKO-35; EKO-35, with Ciprofloxacin): 512 µg/mL | NMP MICa Combined (EKO-35; EKO-35, with Erythromycin): 256 µg/mL | NMP MICa Combined (EKO-35; EKO-35, with Ethidium Bromide): 512 µg/mL | NMP MICa Combined (EKO-35; EKO-35, with Fusidic Acid): 256 µg/mL | NMP MICa Combined (EKO-35; EKO-35, with Linezolid): 16 µg/mL | NMP MICa Combined (EKO-35; EKO-35, with Oxacillin): 256 µg/mL | susceptibility to the efflux pump inhibitor alone, efflux-deficient strains vs wild-type (EKO-35; efflux-deficient strains EKO-35, EKO-35 acrBD408A, ΔtolC): comparable to the wild-type strain | NMP MICa Alone (ΔtolC-Pore; ΔtolC Pore, NMP alone, one value per checkerboard): 512 µg/mL | NMP MICa Combined (ΔtolC-Pore; ΔtolC Pore, with Erythromycin): 256 µg/mL | NMP MICa Combined (ΔtolC-Pore; ΔtolC Pore, with Ethidium Bromide): 128 µg/mL | NMP MICa Combined (ΔtolC-Pore; ΔtolC Pore, with Linezolid): 256 µg/mL | NMP MICa Combined (ΔtolC-Pore; δtolC Pore, with Ciprofloxacin): 256 µg/mL | NMP MICa Combined (ΔtolC-Pore; δtolC Pore, with Fusidic Acid): 128 µg/mL | NMP MICa Combined (ΔtolC-Pore; δtolC Pore, with Oxacillin): 16 µg/mL
